Reference: patent US20100120703A1, “COMPOSITIONS AND METHODS FOR TREATING CANCER” (priority 2007, published 2010)

What was measured:
HepG2 cells = experiment: Cell cycle analysis by flow cytometry (PI); type: cell-based, human
Experimental: Flow Cytometery is a rapid and quantitative method for measuring certain physical and chemical characteristics of cells or particles as they travel in suspension through a sensor. When the cell is labeled with propidium iodide (PI), the DNA content can be measured which is used to determine the stage of the cell cycle. When cell cycles are obtained, a cell cycle map can be recorded.
HepG2 cells were trypsinized, washed and seeded into […] culture plates in complete RPMI medium. After 24 hours of pre-incubation, different concentrations (250 μM and 500 μM) of SIN were added to the culture plates. The complete RPMI medium was added to one plate containing control cells. After different periods of incubation with SIN, cells were harvested, the medium was removed from the culture plate and the plate was washed twice with 2 ml of 1×PBS buffer. All of the solutions were collected, and the cells were trypsinized and collected. The whole solution was centrifuged at 1,000 rpm for 3 minutes. The supernatant was removed and the cell pellet was resuspended in 1 ml 1×PBS buffer for washing. […]
The cell pellet was resuspended in 1 ml of 70% ethanol and 0.1 ml of 1×PBS buffer. […] DNA content was analyzed using an FACScan Flow cytometry with sufficient Sheath Fluid. The results were analyzed by the FCS express software produced by the De Novo Software Company.

Sprague Dawley (SD) rats = experiment: DEN/CCl4-induced hepatoma in rats, progression stage: liver observation and weight; type: in vivo, rat; settings: 15 mg/kg oral daily for 24 weeks
Excerpt: The effect of SIN on progression stage of cancer development was studied. FIG. 20 summarized the protocol applied to rats. The amounts of rats and grouping method were all the same as in the promotion stage experiment.
(§1) Rats in the negative control group received weekly intraperitoneal (i.p.) injection of DMSO for the first 2 weeks and then Corn Oil for 28 weeks. Rats in the positive control and SIN-treatment groups both received weekly intraperitoneal (i.p.) injection of DEN for the first 2 weeks and then CCl4 for 28 weeks. Two weeks of fasting were inserted between DEN treatment and CCl4 treatment. Starting from 33rd week, negative and positive control groups received oral administration of water once a day. Sinigrin with dosage 15 mg/kg was administered orally to the SIN-treatment group daily for 24 weeks. After treatment, the rats were killed. Blood and liver were collected and processed as described in the foregoing examples.

[1] = tested on: p53, Mdm2, p21, PCNA, Bax and Bcl-2; experiment: Gene expression assay (semi-quantitative PCR, Western blot) in rat liver, progression stage; type: in vivo
Experimental: RNA was extracted from 300 μg of rat liver and was measured as described in foregoing examples Three micrograms of total RNA, 1 μl of an oligo dT primer and certain volume of RNase-Free H2O were mixed into a total volume of 12 μl. The mixture was incubated at 70° C. for 10 minutes and immediately chilled on ice. Four microliters of 5× First Stand Buffer, 2 μl of 0.1M DTT, 1 μl of 10 mM dNTP mix, and 1 μl of SuperScript II were added to each tube and mixed. The tubes were incubated at 42° C. for 50 minutes followed by 70° C. for 15 minutes before chilling on ice. The cDNA was then ready for PCR amplification.
The PCR reactions were performed in a final volume of 20 μl in a Gene Amp® PCR system. The PCR reaction mix contained 1 μl of cDNA synthesized previously, 2 μl 10×PCR Buffer, 0.4 μl 10 mM dNTP mix, 1.2 μl 25 mM MgCl2, 1 μl 10 mM primer mix, 0.2 μl recombinant Taq polymerase, and 14.2 μl autoclaved ddH2O.
The intensity of the PCR products was analyzed by the software Image J. The band intensity of the β-actin gene was measured as an internal control. The ratio of the band intensities of the target gene to the β-actin gene was used to compare the mRNA level of each gene between different treatment groups.
Three hundred micrograms of each liver sample were homogenized in the Solution C at 1 g/ml using a glass homogenizer on ice. The homogenate was transferred to a microcentrifuge tube and centrifuged at 13,000 rpm for 20 minutes. The supernatant was collected and equal volume of 2× sample loading dye was added to each sample. The samples were stored at −20° C. The protein was used for immunodetection of the expression level of Bax, Bcl-2, PCNA and p21.
Three hundreds micrograms of each liver sample were homogenized in Solution A at 1 g/ml using the glass homogenizer on ice. The homogenate was transferred into a microcentrifuge tube and centrifuged at 3,000 rpm for 5 minutes to spin down the unbroken tissue. The supernatant was collected and incubated on ice for 5 minutes and then centrifuged at 5,000 rpm for 5 minutes. The supernatant was discarded and the pellet was lysed by 100 μl Solution B. The lysing process lasted for 20 minutes on ice. After incubation, the solution was centrifuged at 12,000 rpm for 15 seconds to spin down the cell debris. The supernatant was collected and equal volume of 2× sample loading dye was added to each sample. The samples were ready for immunodetection of the expression level of p53 and mdm2.
Each of the transferred membrane blots was incubated in 4 ml TBST with 5% non-fat milk powder and primary antibody overnight at 4° C. After incubation, the membrane was washed in TBST buffer for 10 minutes for 3 times. Each transferred membrane blot was then incubated in 4 ml TBST and 5% non-fat milk powder with secondary antibody for 1 hour at room temperature. After incubation, the membrane was washed in TBST buffer for 10 minutes for 3 times. The membrane was ready for ECL reaction.
The films that captured the signal from the ECL reaction were scanned into the computer and analyzed by the software Image J to read the density of darkness.
as §1
The gene expression assays were performed as described in the foregoing examples. […]

[2] = tested on: rats previously treated with dimethylhydrazine (DMH); settings: cited from earlier work

## C=CC/C(=N/OS(=O)(=O)[O-])S[C@@H]1OC(CO)[C@@H](O)C(O)C1O.[K+] (stereo partly drawn) [SIN, sinigrin]
HepG2 cells; 0.5 mM SIN, 96 hours
  cells arrested in sub G1 phase vs untreated cells: the increase of the cells arrested in sub G1 phase becomes very obvious
HepG2 cells; SIN treatment, 24-96 hours
  cell cycle effect in HepG2 cells: G0/G1 phase arrest
Sprague Dawley (SD) rats
  percentage of liver weight and liver weight index vs negative group: only slightly higher
  visible tumors on liver (direct observation): few visible tumors
[1]; RT-PCR
  Mdm2 mRNA expression: reduced back to levels near or even lower than the negative control
  p53 mRNA expression: reduced back to levels near or even lower than the negative control
[1]; Western blot
  Bax protein expression (decreased in positive group): reversed
  Bcl-2 protein expression (increased in positive group): reversed
  Mdm2 protein expression (increase in positive control): partially reversed
  PCNA protein expression (increased in positive group): reversed
  p21 protein expression: restored its expression to a level substantially higher than the negative control
  total p53 protein level: significantly increased
  wild type p53 protein level: restored its expression to a level even higher than that of the negative control
[2]; DMH treated rats
  apoptosis in colonic tissue vs DMH only: higher level of apoptosis
[2]; sinigrin administered after DMH
  aberrant crypt foci in colonic tissue: suppresses induction of aberrant crypt foci
